Experimental data reported in patent US10793563B2, “GCN2 inhibitors and uses thereof” (Merck Patent GmbH, priority 2018, dated 2020).

Assays:
[1] = target: intracellular GCN2 (phosphorylation of the GCN2 substrate eIF2α) (Homo sapiens (Human), UniProt Q9P2K8); test: GCN2 Cellular Inhibition Assay (AlphaScreen SureFire P-eIF2α Ser51, borrelidin-treated U2OS cells); format: cell-based; conditions: 10 μM borrelidin, 1 h, phosphorylated eIF2α Ser51, read-out: GCN2 Biomarker (IC50)
Method in brief: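 Phospho-eIF2α (Ser51) measured by AlphaScreen SureFire in lysates of U2OS cells stimulated 1 h at 37 °C with 10 μM borrelidin alongside compound, 4-fold dilutions from 40 μM. Inhibition expressed as percent relative to borrelidin-alone controls.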

GCN2 kinase = GCN2 kinase (Homo sapiens (Human), UniProt Q9P2K8); test: GCN2 Enzyme Inhibition Assay (Transcreener ADP2 fluorescence polarization); format: biochemical; conditions: 280 μM ATP, 200 μM (RS)7 peptide, 4 nM GCN2, 25° C.; for Ki: Ki(app)
Method in brief: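 At 25 °C, GCN2 kinase (typical final concentration 4 nM) and (RS)7 peptide in Tris-HCl pH 7.5 buffer with MgCl2, NaCl and DTT were preincubated with compound for 10 min, then ATP was added for a 1 h reaction. ADP was read by FP with antibody/Alexa633 tracer. Non-linear tight-binding analysis gave IC50 and apparent Ki.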

intracellular GCN2 (phosphorylation of the GCN2 substrate eIF2α), sequence (Q9P2K8 whole entry): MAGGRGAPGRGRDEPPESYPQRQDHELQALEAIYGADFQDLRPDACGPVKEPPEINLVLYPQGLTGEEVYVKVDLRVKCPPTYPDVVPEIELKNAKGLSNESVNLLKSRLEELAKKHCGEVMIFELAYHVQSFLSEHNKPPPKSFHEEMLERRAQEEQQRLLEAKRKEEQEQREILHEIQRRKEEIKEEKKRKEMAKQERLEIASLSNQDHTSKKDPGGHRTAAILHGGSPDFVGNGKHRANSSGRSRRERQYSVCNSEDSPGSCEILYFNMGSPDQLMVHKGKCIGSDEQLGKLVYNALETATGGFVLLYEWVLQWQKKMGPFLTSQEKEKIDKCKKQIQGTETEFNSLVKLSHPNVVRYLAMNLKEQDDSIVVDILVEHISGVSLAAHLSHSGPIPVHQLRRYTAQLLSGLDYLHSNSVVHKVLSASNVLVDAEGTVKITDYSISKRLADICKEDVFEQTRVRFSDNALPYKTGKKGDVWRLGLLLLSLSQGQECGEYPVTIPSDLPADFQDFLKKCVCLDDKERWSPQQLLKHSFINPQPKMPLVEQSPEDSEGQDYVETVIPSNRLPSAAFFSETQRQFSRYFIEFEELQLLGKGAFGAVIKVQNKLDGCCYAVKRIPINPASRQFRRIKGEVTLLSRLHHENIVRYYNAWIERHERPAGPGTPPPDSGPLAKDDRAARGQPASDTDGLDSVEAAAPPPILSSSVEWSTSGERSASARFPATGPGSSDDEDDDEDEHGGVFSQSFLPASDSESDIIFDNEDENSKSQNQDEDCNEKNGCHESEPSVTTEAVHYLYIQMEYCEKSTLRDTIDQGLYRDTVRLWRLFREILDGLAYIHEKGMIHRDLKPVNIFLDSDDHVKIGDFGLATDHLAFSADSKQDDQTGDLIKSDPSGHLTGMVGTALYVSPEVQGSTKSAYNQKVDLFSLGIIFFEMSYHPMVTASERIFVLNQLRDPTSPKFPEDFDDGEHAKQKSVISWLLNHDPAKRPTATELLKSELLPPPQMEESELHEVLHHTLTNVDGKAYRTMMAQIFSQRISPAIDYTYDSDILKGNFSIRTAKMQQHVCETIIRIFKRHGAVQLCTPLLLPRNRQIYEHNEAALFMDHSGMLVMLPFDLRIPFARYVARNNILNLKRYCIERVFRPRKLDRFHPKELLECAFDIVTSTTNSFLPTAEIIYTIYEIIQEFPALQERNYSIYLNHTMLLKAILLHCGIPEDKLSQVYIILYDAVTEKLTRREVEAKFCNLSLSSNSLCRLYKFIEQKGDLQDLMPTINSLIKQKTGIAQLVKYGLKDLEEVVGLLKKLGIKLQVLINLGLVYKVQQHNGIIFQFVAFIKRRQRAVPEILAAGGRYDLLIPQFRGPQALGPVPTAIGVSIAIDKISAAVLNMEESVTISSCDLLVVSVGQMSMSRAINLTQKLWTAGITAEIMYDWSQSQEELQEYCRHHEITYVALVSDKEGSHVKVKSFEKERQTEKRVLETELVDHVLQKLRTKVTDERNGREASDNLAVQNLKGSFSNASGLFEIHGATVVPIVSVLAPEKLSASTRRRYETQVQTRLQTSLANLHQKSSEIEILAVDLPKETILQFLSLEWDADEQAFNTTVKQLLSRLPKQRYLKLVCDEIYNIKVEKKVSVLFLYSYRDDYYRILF
GCN2 kinase, sequence (Q9P2K8 whole entry): as above

| Structure (SMILES) | IC50 [1] [nM] | IC50 (GCN2 kinase) [nM] | Ki (GCN2 kinase) [nM] |
| --- | --- | --- | --- |
| FC(F)(F)c1ccc2ncc(-c3nccc(N4CCC[C@H](C(F)(F)F)C4)n3)n2c1 [I-233, (S)-6-(trifluoromethyl)-3-(4-(3-(trifluoromethyl)piperidin-1-yl)pyrimidin-2-yl)imidazo[1,2-a]pyridine] | 500 to 5000 | 100 to 1000 | – |
| NC(=O)C1CN(c2ccnc(-c3cnc4cc(F)c(Cl)cn34)n2)CCN1C1CC1 (stereo not shown) [I-389, 4-(2-(6-chloro-7-fluoroimidazo[1,2-a]pyridin-3-yl)pyrimidin-4-yl)-1-cyclopropylpiperazine-2-carboxamide] | 500 to 5000 | 10 to 100 | – |
| CC(C)(C)OC(=O)N1CC2(CCCN(c3ccnc(-c4cnc5ccc(Cl)cn45)n3)C2)C1 [I-285, tert-butyl 6-(2-(6-chloroimidazo[1,2-a]pyridin-3-yl)pyrimidin-4-yl)-2,6-diazaspiro[3.5]nonane-2-carboxylate] | 500 to 5000 | 100 to 1000 | – |
| C[C@H]1CN(c2ccnc(-c3cnc4ccc(C(F)F)cn34)n2)C[C@@H](CO)O1 [I-524, ((2S,6S)-4-(2-(6-(difluoromethyl)imidazo[1,2-a]pyridin-3-yl)pyrimidin-4-yl)-6-methylmorpholin-2-yl)methanol] | 500 to 5000 | 10 to 100 | – |
| Cc1cnc(N2C[C@@H](C)O[C@@H](c3cn[nH]c3C)C2)nc1-c1cnc2ccc(Cl)cn12 [I-204, (2R,6S)-4-(4-(6-chloroimidazo[1,2-a]pyridin-3-yl)-5-methylpyrimidin-2-yl)-2-methyl-6-(5-methyl-1H-pyrazol-4-yl)morpholine] | 500 to 5000 | 10 to 100 | – |
| C[C@@H]1CN(c2ccnc(-c3cnc4ccc(C(F)(F)F)cn34)n2)C[C@H](C)N1C(=O)CC1COC1 [I-501, 1-(cis-2,6-dimethyl-4-(2-(6-(trifluoromethyl)imidazo[1,2-a]pyridin-3-yl)pyrimidin-4-yl)piperazin-1-yl)-2-(oxetan-3-yl)ethan-1-one] | 500 to 5000 | 100 to 1000 | – |
| C[C@H]1CN(c2ccnc(-c3cnc4ccc(C(F)(F)F)cn34)n2)[C@@H](C)[C@@H](c2cn[nH]c2)N1 (stereo in doubt) [I-37, 3-[4-[2,5-Dimethyl-3-(1H-pyrazol-4-yl)piperazin-1-yl]pyrimidin-2-yl]-6-(trifluoromethyl)imidazo[1,2-a]pyridine] | < 500 | – | < 10 |
| Cn1cnc(C(=O)N2CCN(c3ccnc(-c4cnc5ccc(C(F)(F)F)cn45)n3)CC2c2cn[nH]c2)c1 (stereo not shown) [I-446, (2-(1H-pyrazol-4-yl)-4-(2-(6-(trifluoromethyl)imidazo[1,2-a]pyridin-3-yl)pyrimidin-4-yl)piperazin-1-yl)(1-methyl-1H-imidazol-4-yl)methanone] | 500 to 5000 | 10 to 100 | – |
| C[C@H]1C[C@@H](N=S(C)(C)=O)CN(c2nccc(-c3cnc4ccc(Cl)cn34)n2)C1 (stereo in doubt) [I-159, (((3R,5S)-1-(4-(6-chloroimidazo[1,2-a]pyridin-3-yl)pyrimidin-2-yl)-5-methylpiperidin-3-yl)imino)dimethyl-λ6-sulfanone] | < 500 | 10 to 100 | – |
| Clc1ccc2ncc(-c3nccc(N4CCCC(c5ccon5)C4)n3)n2c1 (stereo not shown) [I-66, 6-Chloro-3-[4-(3-isoxazol-3-yl-piperidin-1-yl)-pyrimidin-2-yl]-imidazo[1,2-a]pyridine] | 500 to 5000 | – | 10 to 100 |
| CS(=O)(=O)NC[C@@H]1CN(c2nsc(-c3cnc4ccc(C(F)(F)F)cn34)n2)CCO1 [I-109, (S)—N-((4-(5-(6-(trifluoromethyl)imidazo[1,2-a]pyridin-3-yl)-1,2,4-thiadiazol-3-yl)morpholin-2-yl)methyl)methanesulfonamide] | 500 to 5000 | – | 10 to 100 |
| C[C@@H]1C[C@H](N=S(C)(C)=O)CN(c2nccc(-c3cnc4ccc(C(F)(F)F)cn34)n2)C1 [I-169, dimethyl(((3 S,5R)-5-methyl-1-(4-(6-(trifluoromethyl)imidazo[1,2-a]pyridin-3-yl)pyrimidin-2-yl)piperidin-3-yl)imino)-λ6-sulfanone] | 500 to 5000 | 10 to 100 | – |
| O=C1NCC2CN(c3ccnc(-c4cnc5ccc(C(F)(F)F)cn45)n3)CCN12 (stereo not shown) [I-5, 7-(2-(6-(Trifluoromethyl)imidazo[1,2-a]pyridin-3-yl)pyrimidin-4-yl)hexahydroimidazo[1,5-a]pyrazin-3(2H)-one] | 500 to 5000 | – | 10 to 100 |
| Fc1cc2ncc(-c3nccc(N4CCCC(c5cn[nH]c5)C4)n3)n2cc1Br (stereo not shown) [I-326, 3-(4-(3-(1H-pyrazol-4-yl)piperidin-1-yl)pyrimidin-2-yl)-6-bromo-7-fluoroimidazo[1,2-a]pyridine] | < 500 | < 10 | – |
| C[C@@H](NS(C)(=O)=O)[C@@H]1CN(c2ccnc(-c3cnc4ccc(C(F)(F)F)cn34)n2)CCO1 (stereo in doubt) [I-404, N—((R)-1-((S)-4-(2-(6-(trifluoromethyl)imidazo[1,2-a]pyridin-3-yl)pyrimidin-4-yl)morpholin-2-yl)ethyl)methanesulfonamide] | 500 to 5000 | 10 to 100 | – |
| CS(=O)(=O)N1CC2(CCCN(c3ccnc(-c4cnc5ccc(C(F)(F)F)cn45)n3)C2)C1 [I-448, 2-(methylsulfonyl)-6-(2-(6-(trifluoromethyl)imidazo[1,2-a]pyridin-3-yl)pyrimidin-4-yl)-2,6-diazaspiro[3.5]nonane] | 500 to 5000 | 10 to 100 | – |
| C[C@@H]1[C@@H](c2cn[nH]c2)NCCN1c1ccnc(-c2cnc3ccc(C(F)(F)F)cn23)n1 [I-536, 3-(4-((2R,3R)-2-methyl-3-(1H-pyrazol-4-yl)piperazin-1-yl)pyrimidin-2-yl)-6-(trifluoromethyl)imidazo[1,2-a]pyridine] | 500 to 5000 | 100 to 1000 | – |

Next, values leading:

| IC50 [1] [nM] | IC50 (GCN2 kinase) [nM] | Ki (GCN2 kinase) [nM] | Structure (SMILES) |
| --- | --- | --- | --- |
| 500 to 5000 | 10 to 100 | – | O=C(c1cn[nH]n1)N1CCN(c2ccnc(-c3cnc4ccc(C(F)(F)F)cn34)n2)CC1c1cn[nH]c1 (stereo not shown) [I-442, (2-(1H-pyrazol-4-yl)-4-(2-(6-(trifluoromethyl)imidazo[1,2-a]pyridin-3-yl)pyrimidin-4-yl)piperazin-1-yl)(2H-1,2,3-triazol-4-yl)methanone] |
| 500 to 5000 | 10 to 100 | – | C[C@@H]1C[C@H](N=S(C)(C)=O)CN(c2ccnc(-c3cnc4ccc(C5CC5)cn34)n2)C1 [I-300, (((3 S,5R)-1-(2-(6-cyclopropylimidazo[1,2-a]pyridin-3-yl)pyrimidin-4-yl)-5-methylpiperidin-3-yl)imino)dimethyl-λ6-sulfanone] |
| < 500 | – | < 10 | FC(F)c1ccc2ncc(-c3ccnc(N4CCOC(c5cn[nH]c5)C4)n3)n2c1 (stereo not shown) [I-18, 4-[4-[6-(Difluoromethyl)imidazo[1,2-a]pyridin-3-yl]pyrimidin-2-yl]-2-(1H-pyrazol-4-yl)morpholine] |
| < 500 | < 10 | – | NC(=O)[C@H]1C[C@H](O)CN(c2nccc(-c3cnc4ccc(Cl)cn34)n2)C1 [I-316, (3 S,5S)-1-(4-(6-chloroimidazo[1,2-a]pyridin-3-yl)pyrimidin-2-yl)-5-hydroxypiperidine-3-carboxamide] |
| 500 to 5000 | 10 to 100 | – | Cc1[nH]ncc1[C@@H]1CN(c2ccnc(-c3cnc4cc(F)c(Cl)cn34)n2)C[C@@H](C)O1 [I-538, (2R,6R)-4-(2-(6-chloro-7-fluoroimidazo[1,2-a]pyridin-3-yl)pyrimidin-4-yl)-2-methyl-6-(5-methyl-1H-pyrazol-4-yl)morpholine] |
| < 500 | < 10 | – | Cc1n[nH]cc1C1CC(O)CN(c2ccnc(-c3cnc4ccc(Cl)cn34)n2)C1 (stereo not shown) [I-302, 1-(2-(6-chloroimidazo[1,2-a]pyridin-3-yl)pyrimidin-4-yl)-5-(3-methyl-1H-pyrazol-4-yl)piperidin-3-ol] |
| 500 to 5000 | – | 10 to 100 | Fc1cc2ncc(-c3nccc(N4CCCC(c5c[nH]cn5)C4)n3)n2cc1Cl (stereo not shown) [I-57, 6-Chloro-7-fluoro-3-{4-[3-(1H-imidazol-4-yl)-piperidin-1-yl]-pyrimidin-2-yl}-imidazo[1,2-a]pyridine] |
| > 5000 | 100 to 1000 | – | FC(F)(F)c1ccc2ncc(-c3nccc(N4CCCC5(CNC5)C4)n3)n2c1 [I-413, 6-(2-(6-(trifluoromethyl)imidazo[1,2-a]pyridin-3-yl)pyrimidin-4-yl)-2,6-diazaspiro[3.5]nonane] |
| 500 to 5000 | 100 to 1000 | – | CC1CN(c2ccnc(-c3cnc4ccc(C(F)(F)F)cn34)n2)CC(C)N1CC#N (stereo not shown) [I-393, 2-(2,6-dimethyl-4-(2-(6-(trifluoromethyl)imidazo[1,2-a]pyridin-3-yl)pyrimidin-4-yl)piperazin-1-yl)acetonitrile] |
| < 500 | < 10 | – | FC(F)(F)c1ccc2ncc(-c3nccc(N4CCN(C[C@@H]5CC56CCOCC6)[C@@H](c5cn[nH]c5)C4)n3)n2c1 [I-522, 3-(4-((S)-4-(((R)-6-oxaspiro[2.5]octan-1-yl)methyl)-3-(1H-pyrazol-4-yl)piperazin-1-yl)pyrimidin-2-yl)-6-(trifluoromethyl)imidazo[1,2-a]pyridine] |
| 500 to 5000 | 10 to 100 | – | CS(=O)(=O)NC1CC(C(F)(F)F)CN(c2nccc(-c3cnc4ccc(C(F)F)cn34)n2)C1 (stereo not shown) [I-525, N-(1-(4-(6-(difluoromethyl)imidazo[1,2-a]pyridin-3-yl)pyrimidin-2-yl)-5-(trifluoromethyl)piperidin-3-yl)methanesulfonamide] |
| 500 to 5000 | 100 to 1000 | – | CC1(F)CCCN(c2ccnc(-c3cnc4ccc(C(F)(F)F)cn34)n2)C1 (stereo not shown) [I-226, 3-(4-(3-fluoro-3-methylpiperidin-1-yl)pyrimidin-2-yl)-6-(trifluoromethyl)imidazo[1,2-a]pyridine] |
